Values quoted from earlier work in patent US20240065977A1, “MYDRIATIC AND ANTI-MUSCARINIC AGENT COMPOSITION FOR OPHTHALMIC USE” (SENTISS PHARMA PRIVATE LIMITED, priority 2020, published 2024).
Read-outs that look alike come from different tables or passages of the source.

Tested on: pupil

In the case of CN1[C@@H]2CC[C@H]1C[C@@H](OC(=O)C(CO)c1ccccc1)C2 (stereo partly drawn) [Atropine], the “Mydriasis Peak” value (Concentration 0.5%-3%) is listed as 30 to 40 min, the “Mydriasis Recovery” value (Concentration 0.5%-3%) is listed as 7 to 12 days and the duration of action (pupillary dilatation) is listed as at least 7 days. For the same compound, the onset of action (pupillary dilatation) was 40 min.

In the case of CN1[C@@H]2CC[C@H]1C[C@@H](OC(=O)C(O)c1ccccc1)C2 (stereo partly drawn) [Homatropine], the “Mydriasis Peak” value (Concentration 2%-5%) is listed as 40 to 60 min and the “Mydriasis Recovery” value (Concentration 2%-5%) is listed as 1 to 3 days.
